Assay results reported in ChEMBL document CHEMBL4673310, “Discovery of benzhydrol-oxaborole derivatives as Streptococcus pneumoniae leucyl-tRNA synthetase inhibitors” (Bioorg Med Chem, 2021).
In brackets after ≈: the same amount, converted by molar mass. Activity calls are given as the source filed them. The rule behind the calls is not given here.

What was measured:
[1] = Inhibition of Streptococcus pneumoniae LeuRS using [3H]Leucine as substrate preincubated for 20 mins
Streptococcus pneumoniae = experiment: Antibacterial activity against Streptococcus pneumoniae assessed as suppression of visible growth incubated for 24 hrs by CLSI-based broth microdilution method; format: functional

| Compound | IC50 [1] [µM] | MIC (Streptococcus pneumoniae) |
| --- | --- | --- |
| OB1OCc2ccc(C(O)c3ccc(Cl)cc3)cc21 (centres undefined) | 7.44 | – |
| CCOC(=O)CC(=O)CSc1ccc(C(O)c2ccc3c(c2)B(O)OC3)cc1 (centres undefined) | 7.63 | – |
| CC(=O)COc1ccc(C(O)c2ccc3c(c2)B(O)OC3)cc1 (centres undefined) | 7 | – |
| CS(=O)(=O)c1ccc(C(O)c2ccc3c(c2)B(O)OC3)cc1 (centres undefined) | 32.5 | – |
| CSc1ccc(C(O)c2ccc3c(c2)B(O)OC3)cc1 (centres undefined) | 3.95 | 32 µg/mL (≈ 112 µM) |
| C=CCSc1ccc(C(O)c2ccc3c(c2)B(O)OC3)cc1 (centres undefined) | 8.27 | – |
| OB1OCc2ccc(C(O)c3cccc(F)c3)cc21 (centres undefined) | 56.1 | – |
| OB1OCc2ccc(C(O)c3cccc(Cl)c3)cc21 (centres undefined) | 23.7 | – |
| OB1OCc2ccc(C(O)c3ccc(C(F)(F)F)cc3)cc21 (centres undefined) | 5.75 | 32 µg/mL (≈ 104 µM) |
| CC(=O)c1ccc(C(O)c2ccc3c(c2)B(O)OC3)cc1 (centres undefined) | 11 | – |
| Nc1ccc(CSc2ccc(C(O)c3ccc4c(c3)B(O)OC4)cc2)cc1 (centres undefined) | 11.7 | – |
| OB1OCc2ccc(C(O)c3ccc(-c4ccccc4)cc3)cc21 (centres undefined) | 5.48 | 4 µg/mL (≈ 12.7 µM) |
| OB1OCc2ccc(C(O)c3ccc(S)cc3)cc21 (centres undefined) | 0.368 | 8 µg/mL (≈ 29.4 µM) |
| OB1OCc2ccc(C(O)c3ccc(SCC(F)(F)F)cc3)cc21 (centres undefined) | 3.63 | – |
| OB1OCc2ccc(C(O)c3ccc(SCc4ccccc4)cc3)cc21 (centres undefined) | 27.5 | – |
| O=Cc1ccc(C(O)c2ccc3c(c2)B(O)OC3)cc1 (centres undefined) | 12.8 | – |
| COc1ccc(C(O)c2ccc3c(c2)B(O)OC3)cc1 (centres undefined) | 23.2 | – |
| O=Cc1cc(C(O)c2ccc3c(c2)B(O)OC3)ccc1F (centres undefined) | 66.8 | – |
| N#CCSc1ccc(C(O)c2ccc3c(c2)B(O)OC3)cc1 (centres undefined) | 3.89 | 8 µg/mL (≈ 25.7 µM) |
| OB1OCc2ccc(C(O)c3ccc(N4CCOCC4)cc3)cc21 (centres undefined) | 10.3 | – |
| OB1OCc2ccc(C(O)c3ccc(SCC4CCCCC4)cc3)cc21 (centres undefined) | 8.76 | – |
| COC(=O)c1ccc(C(O)c2ccc3c(c2)B(O)OC3)cc1 (centres undefined) | 18.5 | – |

| Compound | IC50 [1] [µM] | MIC (Streptococcus pneumoniae) |
| --- | --- | --- |
| O=[N+]([O-])c1ccc(CSc2ccc(C(O)c3ccc4c(c3)B(O)OC4)cc2)cc1 (centres undefined) | 7.16 | – |
| OB1OCc2ccc(C(O)c3ccc(F)cc3)cc21 (centres undefined) | 4.86 | inactive |
| CC(=O)CSc1ccc(C(O)c2ccc3c(c2)B(O)OC3)cc1 (centres undefined) | 0.95 | 6 µg/mL (≈ 18.3 µM) |
| COc1cccc(C(O)c2ccc3c(c2)B(O)OC3)c1 (centres undefined) | 50.8 | – |
| NC(=O)CSc1ccc(C(O)c2ccc3c(c2)B(O)OC3)cc1 (centres undefined) | 10.2 | – |
| OB1OCc2ccc(C(O)c3ccc(SC(F)(F)F)cc3)cc21 (centres undefined) | 25.7 | – |
| COCCSc1ccc(C(O)c2ccc3c(c2)B(O)OC3)cc1 (centres undefined) | 5.76 | – |
| CC(C)(C)OC(=O)NCCSc1ccc(C(O)c2ccc3c(c2)B(O)OC3)cc1 (centres undefined) | 70.2 | – |
| OB1OCc2ccc(C(O)c3ccc(SCc4ccncc4)cc3)cc21 (centres undefined) | 7.17 | – |
| N#Cc1ccc(C(O)c2ccc3c(c2)B(O)OC3)cc1 (centres undefined) | 8.14 | – |
| C[Si](C)(C)CSc1ccc(C(O)c2ccc3c(c2)B(O)OC3)cc1 (centres undefined) | 13.3 | – |
| C=Cc1ccc(C(O)c2ccc3c(c2)B(O)OC3)cc1 (centres undefined) | 4.63 | 8 µg/mL (≈ 30.1 µM) |
| COc1cc(C(O)c2ccc3c(c2)B(O)OC3)cc(OC)c1OC (centres undefined) | > 640 | – |
| CSc1ccccc1C(O)c1ccc2c(c1)B(O)OC2 (centres undefined) | 57.1 | – |
| C#CCSc1ccc(C(O)c2ccc3c(c2)B(O)OC3)cc1 (centres undefined) | 3.77 | 16 µg/mL (≈ 51.6 µM) |
| COc1ccc(C(O)c2ccc3c(c2)B(O)OC3)cc1OC (centres undefined) | 67.8 | – |
| COC(=O)c1ccc(CSc2ccc(C(O)c3ccc4c(c3)B(O)OC4)cc2)cc1 (centres undefined) | 22.7 | – |
| OB1OCc2ccc(C(O)c3ccccc3)cc21 (centres undefined) | 2.13 | 10 µg/mL (≈ 41.7 µM) |
| CC1(C)S[C@@H]2[C@H](NC(=O)[C@H](N)c3ccccc3)C(=O)N2[C@H]1C(=O)O [AMPICILLIN] | – | 0.125 µg/mL (≈ 0.358 µM) |
| CSc1cccc(C(O)c2ccc3c(c2)B(O)OC3)c1 (centres undefined) | 23.9 | – |
| C[S+]([O-])c1ccc(C(O)c2ccc3c(c2)B(O)OC3)cc1 (centres undefined) | > 100 | – |
| O=C(O)CSc1ccc(C(O)c2ccc3c(c2)B(O)OC3)cc1 (centres undefined) | 2.15 | – |
